Laboratory results taken from patent publication US10765687B2, “Methods and compounds to inhibit enveloped virus release” (Northwestern University, priority 2012, dated 2020).

Experiments:
WWP2 (SEQ ID NO:24) = target: T1, WWP2 (SEQ ID NO:24) (Homo sapiens, UniProt O00308); test: Epic label-free binding assay of compounds to immobilized WWP2; settings: Epic label-free binding, WWP2 as target; read-out: Kd
T1 construct: poly-His (pET28b leader with thrombin site) (N, cleaved yes); made in house; host or cells: E. coli BL21 DE3
T1 sequence (O00308 with tags, fused parts or gaps): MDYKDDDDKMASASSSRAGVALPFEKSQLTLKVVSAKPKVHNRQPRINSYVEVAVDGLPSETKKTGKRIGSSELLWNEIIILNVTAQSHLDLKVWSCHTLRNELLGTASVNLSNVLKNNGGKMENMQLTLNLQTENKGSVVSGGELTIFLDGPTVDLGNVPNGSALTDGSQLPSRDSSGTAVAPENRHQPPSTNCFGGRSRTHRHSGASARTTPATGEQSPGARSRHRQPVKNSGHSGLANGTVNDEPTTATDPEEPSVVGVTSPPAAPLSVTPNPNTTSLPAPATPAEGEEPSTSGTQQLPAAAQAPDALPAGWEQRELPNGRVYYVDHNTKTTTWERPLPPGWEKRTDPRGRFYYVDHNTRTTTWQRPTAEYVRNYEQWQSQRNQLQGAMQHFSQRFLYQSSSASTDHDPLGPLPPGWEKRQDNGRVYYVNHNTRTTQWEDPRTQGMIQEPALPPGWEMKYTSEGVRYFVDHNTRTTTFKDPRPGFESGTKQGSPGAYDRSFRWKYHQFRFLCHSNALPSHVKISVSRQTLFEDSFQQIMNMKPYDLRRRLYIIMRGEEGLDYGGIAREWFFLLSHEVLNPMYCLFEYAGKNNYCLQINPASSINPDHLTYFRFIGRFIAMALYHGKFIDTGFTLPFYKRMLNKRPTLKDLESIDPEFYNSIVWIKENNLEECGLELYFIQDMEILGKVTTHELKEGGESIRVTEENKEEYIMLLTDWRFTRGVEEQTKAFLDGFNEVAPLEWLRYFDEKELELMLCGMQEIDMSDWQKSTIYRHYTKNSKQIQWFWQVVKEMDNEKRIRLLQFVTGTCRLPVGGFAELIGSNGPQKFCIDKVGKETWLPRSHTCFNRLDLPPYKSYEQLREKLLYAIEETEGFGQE
Procedure: Another preferred embodiment of an in vitro screening method is depicted in FIG. 3. In this method, the ability of the candidate compound 204 to directly interact with the cellular ESCRT-linked component protein (for example, Nedd4 family of polypeptides [for example, WWP1 (SEQ ID NO:29), WWP2 (SEQ ID NO:24), Nedd4 L, among others]) or TGS101 is evaluated. According to this embodiment, a cellular ESCRT component protein 202 is preferably immobilized to a substrate 201 (for example, a microtiter plate) via a linking group 203 (for example, an amine group). The substrate preferably includes an optional reference area that provides a control to prevent non-specific interactions with non-mobilized ESCRT complex protein 202 with substrate 201. The substrate 201 is washed and irradiated with broadband light so that a baseline refractive index is measured. Test compound 204 is added to the system to permit its binding to the immobilized ESCRT component protein 202 to form a resultant associative complex 205. The substrate 201 is irradiated with broadband light again to detect a change in the wavelength of the reflected light.
High sensitivity biochemical plates (PerkinElmer Cat. No. 6057468) are used in WWP2 (SEQ ID NO:24) binding assay to maximize protein immobilization. […] Because compound stocks are in DMSO that affects the Epic label-free readout, the compound plates were prepared by Echo550 acoustic dispenser to keep DMSO content balanced for all wells. […]
The binding of compounds to WWP2 (SEQ ID NO:24) was measured on the EnSpire label-free plate reader. After 25 minutes of thermal equilibration, a baseline reading was taken on the label-free plates with protein immobilized in assay buffer. […] The final reading was taken after 25 min of thermal equilibration and over a period of 60 minutes. The label-free responses were measured as shifts in reflected wavelength and were expressed in picometers (pm). Results were analyzed using the EnSpire label-free user interface software. […]

[1] = test system: ASLV virus like particles (VLPs); test: ASLV VLP release from 293 cells, Western blot with anti-ASLV Gag antibody; format: cell-based; settings: FIG. 6A, compared with untreated cells
Procedure: 293/E cells were cultured in DMEM supplemented with 10% fetal bovine serum, penicillin (1,000 units/ml), and streptomycin (1,000 μg/ml) to 50% confluence at 37° C. Expression of plasmids from p2036 was high in 293/E cells because these cells stably express the EBNA1 protein of EBV and the p2036 constructs contain the EBV FR plasmid maintenance element that EBNA 1 binds. Therefore 293/E cells were used when proteins expressed from p2036 were to be detected by western analysis. In all experiments, 24-well plates of 293/E cells were transfected with 0.5 μg of p2036-ASLV Gag with the X-treme Gene9 transfection reagent (Roche Diagnostics, Alameda, Calif., USA) according to the manufacturer's instructions. After 24 h after DNA transfection, the cells were washed with 1×DPS that contained CaCl2 (0.1 mM) and MgCl2 (1 mM) [Gibco #14040-133], and 1 ml of cell culture medium (10% FBS, 1% Penicillin/Streptomycin) containing CaCl2 (0.5 mM) and MgCl2 (5 mM) was added. […]
For the budding assay, both media and cell lysate fractions were collected. […] After blocking of the membrane with wash buffer (10 mM Tris-HCl, pH 8.0, 150 mM NaCl, and 0.1% Tween 20) containing 5% nonfat dry milk, ASLV Gag proteins were detected with an AMV MA (p19) directed monoclonal antibody (mAb) and an anti-mouse IgG-HRP secondary antibody for ECL (Denville Scientific; Metuchen, N.J.).

HIV-1 = HIV-1 release from T-cells in culture, HIV-1 CA protein in media by ELISA; settings: T cells contacted with compound then infected with HIV-1
Description: These compounds were further evaluated as antiviral inhibitors of virus budding and release using the methods disclosed herein.

Row | SMILES | Kd (WWP2 (SEQ ID NO:24)) [µM] | Release of ASLV VLPs from cells [1] | HIV-1 particle release (in words) (HIV-1)
1 | Cl.NC(CO)C(=O)NNCc1ccc(O)c(O)c1O (racemic) [Benserazide Hydrochloride, (RS)-2-amino-3-hydroxy-N′-(2,3,4-trihydroxybenzyl) propanehydrazide hydrochloride] | 7.9 | budding defect | significant reduction in HIV-1 particle release
2 | CN(C)[C@@H]1C(O)=C(C(N)=O)C(=O)[C@@]2(O)C(=O)C3=C(O)c4c(O)cccc4[C@@](C)(O)[C@H]3[C@H](O)[C@@H]12 [Oxytetracycline, (4S,4aR,5S,5aR,6S,12aS)-4-(dimethylamino)-3,5,6,10,11,12a-hexahydroxy-6-methyl-1,12-dioxo-1,4,4a,5,5a,6,12,12a-octahydrotetracene-2-carboxamide] | 10.6 | budding defect | significant reduction in HIV-1 particle release
